Patent US11186589B2, “Cyanoindoline derivatives as NIK inhibitors” (Janssen Pharmaceutica NV, priority 2016, dated 2021)

Columns and labels:
NIK/MAP3K14 = NIK/MAP3K14 (Homo sapiens (Human), UniProt Q99558); test: Inhibition of auto-phosphorylation of recombinant human NF-kappaB-inducing kinase (NIK/MAP3K14) activity (AlphaScreen); assay type: biochemical; conditions: averaged values over all measurements on all batches, 25 microM ATP
Method in brief: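 GST-tagged NIK (0.2 nM) auto-phosphorylation was run with 25 microM ATP in pH 7.5 Tris buffer with MgCl2 for 1 h at 25 °C. It was detected by AlphaScreen with anti-phospho-IKK Ser176/180 antibody. IC50 came from sigmoidal fits of blank-subtracted % inhibition versus log concentration.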

[1] = test system: P-IKKα levels in L363 cells; test: Effect of compounds on P-IKKα levels in L363 (NIK translocated multiple myeloma) cells; assay type: cell-based, human; conditions: Homo sapiens, L-363, 2 h, 2 hr treatment, averaged values, read-out: Inhibition of pIKKα_L-363 (IC50 (nM))
Method in brief: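 L363 cells pre-incubated 24 hr with BAFF, then compound (8-point 1:3 dilutions, 1% DMSO) for 2 hr at 37 °C. P-IKKα in lysates read by sandwich immunoassay; blank with 10 μM ADS125117 subtracted, IC50 from sigmoidal fit of % inhibition of control.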

JJN-3 cells = test: Antiproliferative activity on JJN-3 (NIK translocated) multiple myeloma cells (CellTiter-Glo); assay type: cell-based, human; conditions: Homo sapiens, JJN-3, 96 h, JJN-3 (NIK translocated) cells, 96 hr treatment, averaged values, read-out: JJN-3 Proliferation inhibition (IC50 (nM))
Method in brief: (§1)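 Cells in RPMI 1640 with 2 mM L-glutamine and 10% FCS, treated 96 hr at 37 °C with 9-point 1:3 dilution series, 0.3% DMSO final. Viability read by CellTiter-Glo luminescence, mean of 2 wells. Time-zero blank subtracted; growth expressed as % of untreated control.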

KMS12-BM cells = test: Antiproliferative activity on KMS12-BM (NIK WT) multiple myeloma cells (CellTiter-Glo); assay type: cell-based, human; conditions: Homo sapiens, KMS-12-BM, 96 h, 96 hr treatment, averaged values, read-out: KMS-12 Proliferation inhibition (IC50 (nM))
Method in brief: as §1

Chain of NIK/MAP3K14 (Q99558 whole entry): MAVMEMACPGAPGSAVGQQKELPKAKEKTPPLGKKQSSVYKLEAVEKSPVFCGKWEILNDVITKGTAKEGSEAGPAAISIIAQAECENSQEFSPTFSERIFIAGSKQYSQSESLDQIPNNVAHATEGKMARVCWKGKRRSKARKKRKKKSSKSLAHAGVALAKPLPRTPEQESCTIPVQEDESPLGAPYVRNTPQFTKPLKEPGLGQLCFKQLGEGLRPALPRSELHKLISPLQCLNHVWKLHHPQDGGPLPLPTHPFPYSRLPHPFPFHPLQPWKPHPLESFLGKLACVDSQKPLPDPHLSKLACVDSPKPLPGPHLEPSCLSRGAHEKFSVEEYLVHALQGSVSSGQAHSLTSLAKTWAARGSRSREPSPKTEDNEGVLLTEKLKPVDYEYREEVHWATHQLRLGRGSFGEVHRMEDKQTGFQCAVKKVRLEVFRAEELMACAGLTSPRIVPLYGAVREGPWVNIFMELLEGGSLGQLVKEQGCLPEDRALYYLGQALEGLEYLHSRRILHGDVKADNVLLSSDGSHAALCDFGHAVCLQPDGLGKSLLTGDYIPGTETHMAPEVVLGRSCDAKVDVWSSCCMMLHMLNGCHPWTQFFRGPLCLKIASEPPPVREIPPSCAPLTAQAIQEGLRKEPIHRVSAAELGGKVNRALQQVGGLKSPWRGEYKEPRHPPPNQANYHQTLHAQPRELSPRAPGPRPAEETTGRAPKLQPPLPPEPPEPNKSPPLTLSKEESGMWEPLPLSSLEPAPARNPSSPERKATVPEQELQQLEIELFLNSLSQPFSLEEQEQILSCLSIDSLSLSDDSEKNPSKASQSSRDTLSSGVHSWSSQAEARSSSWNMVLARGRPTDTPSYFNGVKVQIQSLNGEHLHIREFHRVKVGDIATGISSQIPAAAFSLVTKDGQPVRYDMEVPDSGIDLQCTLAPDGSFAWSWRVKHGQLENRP

Row | IC50 (NIK/MAP3K14) | IC50 [1] | IC50 (JJN-3 cells) | IC50 (KMS12-BM cells) | SMILES
1 | 35.5 nM | 204 nM | 2400 nM | > 10000 nM | C[C@]1(CO)CNc2c(C#N)cc(-c3ccnc(Nc4cc5c(n(CCC6CC6)c4=O)CCOC5)n3)cc21 [Compound 58]
2 | 4.8 nM | 17 nM | 100 nM | 603 nM | CCc1c(Nc2nccc(-c3cc(C#N)c4c(c3)[C@@](C)(CO)CN4)n2)ccc2c1CCN(C(C)CO)C2 (some centres unmarked) [Compound 60]
